Key:
Assay type in all cases: in vivo
[1] = tested on: Arabidopsis thaliana Landsberg erecta wild type (WT); experiment: Plant growth on MS media containing conjugates, wild type
Excerpt: (§1) Arabidopsis thaliana Landsberg erecta is a wild type (WT) strain derived from the Landsberg ecotype. Arabidopsis thaliana Landsberg erecta strain DW150-307 (DW) is a transgenic strain produced using the method of Blazquez et al., 1997, Development 124:3835-3844. The transgenic DW strain is homozygous for the LFY::GUS insertion and thus contains GUS under control of the full length LFY promoter that expresses E. coli β-glucuronidase. Expression of GUS in this strain is developmentally regulated, showing the highest levels 9 days after germination (at the onset of meristem floral initiation under a long-day, 16 h. light regime), but having basal levels in vegetative apices throughout secondary growth. Accordingly, GUS expression leads to production of the E. coli β-glucuronidase enzyme in floral and to a lesser extent in shoot meristem tissues of the plant. Isogenic homozygous plant strains were kindly provided by Dr. Detlef Weigel, Department of Biology, The Salk Institute, San Diego, Calif.
(§2) Wild type (WT) and recombinant (DW) plants were grown in MS media containing 0-100 ug/mL of conjugates M0630, M0632, or M0792 (prepared as set forth herein). All plants were grown at 23° C. in long-day (16 hours light/8 hours dark) cycles, under a mixture of Cool White and Gro-Lux/WS fluorescent lights (Osram, Sylvania) and sterile conditions.

[2] = tested on: GUS-positive potato (May queen) plants; experiment: Negative selection of potato transformants; conditions: M0627 3.5 mg/L, M0630 10 mg/L, M0632 10 mg·L, M0792 5 mg/L; MS media, soil or daily spray
Procedure: Potato (May queen) pieces with sprouts are planted in a mixture of vermiculite and compost (1:1). After two weeks, the apical meristem culture of the grown sprouts is removed to obtain the sterile seedling plants. Sterile plants are then placed in MS liquid medium containing 2% sucrose, pH 5.7 (80 ml) and incubated with rotation at 25° C. in a well-lighted place to induce rooting. After two weeks, the rooted plants are transferred into MS liquid medium for microtuber induction (MS medium, 8% sucrose, pH 5.7, 40 ml medium in 100 ml Erlenmeyer flask) in the dark for 28 days. The microtubers are then cut into pieces (2 mm) and transferred into agar medium for regeneration (MS medium, 2% sucrose, 1 mg/l zeatin, 0.1 mg/l IAA, 1% agar). The pieces of the microtuber pre-cultured for two days are then immersed in an Agrobacterium tumefaciens strain LBA4404 suspension containing the binary plasmid pBI121 (Clontech, Palo Alto, Calif.) for transformation. The plasmid pBI121 carries the neomycin phosphotransferase (NPTII) gene and β-glucuronidase (GUS) gene. In this vector, the neomycin phosphotransferase (NPTII) gene is under the control of the nopaline synthase (nos) promoter and the terminator from nopaline synthase (nos) which provides polyadenylation signal. The neomycin phosphotransferase (NPTII) gene confers kanamycin resistance. The β-glucuronidase (GUS) activity is under the control of the cauliflower mosaic virus ^35S promoter, providing constitutive expression in all tissues, and the terminator from nopaline synthase (nos) provides polyadenylation. Agrobacterium tumefaciens was grown overnight at 28° C. in liquid YEP medium (Sambrook J., Fritsch E. F., Maniatis T., Molecular Cloning: a laboratory manual. 2nd ed., Cold Spring Harbor, N.Y., 1989) supplemented with 25 mg/l rifampicin, 50 mg/l streptomycin, and 50 mg/l kanamycin. An overnight culture is diluted with liquid TE medium to 4×10^8 cells/ml for transformation. A filter paper is placed on the agar medium, over the microtuber pieces and the co-culture is continued for 48 hours. The transfected microtubers are then washed 4-5 times in sterile distilled water to decrease the concentration of Agrobacterium tumefaciens and with a cefotaxime (250 mg/l) solution for 20 min, and then again with sterile distilled water (4-5 times). The microtubers are then transferred into an agar screening medium (MS medium, 2% sucrose, 1 mg/l zeatin, 1 mg/l IAA, 1% agar, 50 mg/l kanamycin, 500 mg/l Claforan, 1% agar). After about two months growth, the divided shoots are transferred into a rooting induction medium and then into a microtuber induction medium. The obtained GUS-positive plants are used for the analysis.

wild-type potato plants = experiment: Negative selection of potato, wild type; conditions: M0627 3.5 mg/L, M0630 10 mg/L, M0632 10 mg·L, M0792 5 mg/L; MS media, soil or daily spray
[3] = tested on: GUS-positive tomato (minitomato) plants; experiment: Negative selection of tomato transformants; conditions: M0627 3.5 mg/L, M0630 10 mg/L, M0632 10 mg·L, M0792 5 mg/L; MS media, soil or daily spray
Procedure: Tomato (cultivar, minitomato) seeds are surface-sterilized with 70% ethanol (30 seconds) and 2% sodium hypochlorite (15 minutes), and then placed on a plant hormone-free MS agar medium. The seeds are cultured at […] 23° C. in long-day (16 hours light/8 hours dark) cycles, under a mixture of Cool White and Gro-Lux/WS fluorescent lights (Osram, Sylvania) and sterile conditions. The cotyledons are taken from the obtained sterile seedlings and then placed on an MS agar medium containing 2 mg/l of Zeatin and 0.1 mg/l of IAA (regeneration medium) in 9 cm Petri dishes, and cultured under the same conditions as those described above for 2 days.
Agrobacterium tumefaciens strain LBA4404 suspension containing the binary plasmid pBI121 (Clontech, Palo Alto, Calif.) is used for transformation. The plasmid pBI121 carries the neomycin phosphotransferase (NPTII) gene and β-glucuronidase (GUS) gene. In this vector, the neomycin phosphotransferase (NPTII) gene is under the control of the nopaline synthase (nos) promoter and the terminator from nopaline synthase (nos) which provides polyadenylation signal. The neomycin phosphotransferase (NPTII) gene confers kanamycin resistance. The β-glucuronidase (GUS) activity is under the control of the cauliflower mosaic virus ^35S promoter, providing constitutive expression in all tissues, and the terminator from nopaline synthase (nos) provides polyadenylation. Agrobacterium tumefaciens is grown overnight at 28° C. in liquid YEP medium (Sambrook J., Fritsch E. F., Maniatis T., Molecular Cloning: a laboratory manual. 2nd ed., Cold Spring Harbor, N.Y., 1989) supplemented with 25 mg/l rifampicin, 50 mg/l streptomycin, and 50 mg/l kanamycin. An overnight culture is diluted with liquid TE medium to 4×10^8 cells/ml for transformation.
The cotyledons cultured for two days are collected in a sterilized Petri dish, and the Agrobacterium suspension is added to them to cause infection. Superfluous Agrobacterium suspension is removed from the cotyledons by using a sterilized filter paper. After further removing excess Agrobacterium suspension, a sterilized filter paper is placed on the medium in the Petri dish in order to prevent rapid propagation of Agrobacterium. The infected cotyledons are placed on this media and co-cultured for 24 hours.
The transfected cotyledons are then transferred into an agar screening medium (MS medium, 2% sucrose, 1 mg/l zeatin, 1 mg/l IAA, 1% agar, 50 mg/l kanamycin, 500 mg/l claforan, 1% agar) to select the GUS transformant plants. The regenerated shoots are then transferred into a new selecting medium to conduct further selection.

wild-type tomato plants = experiment: Negative selection of tomato, wild type; conditions: M0627 3.5 mg/L, M0630 10 mg/L, M0632 10 mg·L, M0792 5 mg/L; MS media, soil or daily spray
[4] = tested on: Arabidopsis thaliana Landsberg erecta strain DW150-307 (DW); experiment: Plant growth on MS media containing conjugates, LFY::GUS recombinant; conditions: for floral tissue response of DW plants upon inflorescence / vegetative growth of DW plants: MS media containing conjugate
Excerpt: as §1, §2

[5] = tested on: Arabidopsis thaliana Landsberg erecta strain DW150-307; experiment: Growth and glycoprotein glycosylation in GUS-containing plants; conditions: for carbohydrate patterns of glycoproteins compared with control seeds: ANTS and 1,5-EDANS labeling, HPLC and PAGE; for decrease in number of inflorescence stems (average) / plant growth: M0809 22 mg/L or M0872 25 mg/L in MS agar medium
Procedure: Arabidopsis thaliana Landsberg erecta strain DW150-307 plants were propagated from seeds. Seeds were surface-sterilized with 70% ethanol (30 seconds) and 2% sodium hypochlorite (15 minutes), and then placed on a plant hormone-free MS agar medium. After incubation at 4° C. for 2 days, the seeds were cultured at 25° C. for one week while the daylight hours were kept to be 16 hours. The cotyledons were taken from the obtained sterile seedlings and then placed on an MS agar medium containing either deoxynojirimycin b-D-glucuronide methyl ester (M0809) (22 mg/L) or deoxymannonojirimycin b-D-glucuronidetriacetate, methyl ester (M0872) (25 mg/L) (regeneration medium in 9 cm Petri dish), and cultured under the same conditions as those described above for 6 days. Plants were transplanted into fresh media containing the same concentrations of M0809 or M0872 as above, and growth continued for an additional 19 days, until full seed pods were obtained. Plants grew normally on media containing the M0809 or M0872, except that the number of inflorescence stems was decreased (an average of 50%) in the treated plant specimens. Seed pods, floral and stem tissues from these plants were harvested, and seeds dried briefly in vacuo (10 mm Hg, 1 hour). Seeds were crushed, and carbohydrate content of all tissues analyzed using the ANTS and 1,5-EDANS labeling systems, followed by HPLC analysis and PAGE electrophoretic analysis.

[6] = 100 ug/mL in MS media (highest concentration)
[7] = lower concentrations in MS media

Row | SMILES | growth of wild type plants [1, 6] | growth of wild type plants [1, 7] | effect on GUS-positive plants [2] | effect on wild-type plants (wild-type potato plants) | effect on GUS-positive plants [3] | effect on wild-type plants (wild-type tomato plants) | floral tissue response of DW plants upon inflorescence [4] | vegetative growth of DW plants [4] | growth phenotype of DW150-307 plants ([4]; 1 ug/mL for 32 days) | germination and survival of DW plants ([4]; media application, above the lowest concentration) | carbohydrate patterns of glycoproteins compared with control seeds [5] | decrease in number of inflorescence stems (average) [5] [%] | plant growth [5]
1 | COC(=O)C1OC(Oc2ccc(=O)[nH]n2)C(OC(C)=O)C(OC(C)=O)C1OC(C)=O [Example M0627, Maleic Hydrazide Beta-D-Glucuronide Triacetate, Methyl Ester] | slightly slower | comparable growth to the blank controls | selective ablation | does not affect growth or morphology | selective ablation | does not affect growth or morphology |  |  |  |  |  |  | 
2 | COC(=O)C1OC(Oc2c(Br)cc(C#N)cc2Br)C(OC(C)=O)C(OC(C)=O)C1OC(C)=O [Example M0630, bromoxynil-β-D-glucuronic acid methyl ester triacetate] |  |  | selective ablation | does not affect growth or morphology | selective ablation | does not affect growth or morphology | floral tissues became chlorotic (brown) and became dehydrated and ablated | normal vegetative growth until inflorescence initiation |  |  |  |  | 
3 | COC(=O)C1OC(Oc2c(Br)cc(C#N)cc2Br)C(O)C(O)C1O [Example M0632, Bromoxynil-β-D-glucuronic acid methyl ester] | slightly slower | comparable growth to the blank controls | selective ablation | does not affect growth or morphology | selective ablation | does not affect growth or morphology |  |  | callus formation | either did not germinate or were ablated shortly after germination |  |  | 
4 | COC(=O)C1OC(OC(CC2CC(=O)NC(=O)C2)C2CC(C)CC(C)C2=O)C(OC(C)=O)C(OC(C)=O)C1OC(C)=O [Example M0792, Cycloheximide-β-D-glucuronic acid methyl ester triacetate] | slightly slower | comparable growth to the blank controls | selective ablation | does not affect growth or morphology | selective ablation | does not affect growth or morphology | floral tissues became chlorotic (brown) and became dehydrated and ablated | normal vegetative growth until inflorescence initiation |  |  |  |  | 
5 | COC(=O)C1OC(OCC2NCC(O)C(O)C2O)C(O)C(O)C1O [Example M0809, deoxynojirimycin b-D-glucuronide methyl ester] |  |  |  |  |  |  |  |  |  |  | modified in structure | 50 | grew normally
6 | COC(=O)C1OC(OCC2NCC(O)C(O)C2O)C(OC(C)=O)C(OC(C)=O)C1OC(C)=O [Example M0872, deoxymannonojirimycin b-D-glucuronidetriacetate, methyl ester] |  |  |  |  |  |  |  |  |  |  | modified in structure | 50 | grew normally

— patent US8716558B2, “Method of altering glycosylation of proteins in response to nojirimycin glucuronide in a plant cell expressing glucuronidase” (Marker Gene Technologies, Inc., priority 1999, dated 2014)
